Source: the supplement of paper PMC10307832

What was measured:
Test in all cases: relative viability (nuclei count vs DMSO), 5 days (fraction); higher = more cells survive
[1] = tested on: HCC-366
Outline: (§1)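 After 5 days of treatment, lung cancer cells in 1536-well plates were fixed and stained in a single step (final 0.05% Triton X-100, 1% formaldehyde, 1 ug/ml Hoechst) and their nuclei counted on 4× images. Treatment had been applied by pin tool the day after seeding as one drug alone or as a fixed anchor-drug dose with five library-drug doses (not always all listed) in √10 steps. Relative viability is the nuclei count of treated wells divided by that of vehicle wells, and values are medians of duplicate plates.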

[2] = tested on: NCI-H1395
Outline: as §1

[3] = tested on: EKVX
Outline: as §1

[4] = tested on: NCI-H441
Outline: as §1

[5] = tested on: BEN
Outline: as §1

[6] = tested on: NCI-H1563
Outline: as §1

[7] = tested on: NCI-H2023
Outline: as §1

[8] = tested on: NCI-H1734
Outline: as §1

[9] = tested on: NCI-H1437
Outline: as §1

[10] = tested on: NCI-H838
Outline: as §1

[11] = tested on: NCI-H460
Outline: as §1

[12] = tested on: NCI-H1755
Outline: as §1

[13] = tested on: NCI-H2085
Outline: as §1

[14] = tested on: CAL-12T
Outline: as §1

[15] = tested on: NCI-H1975
Outline: as §1

[16] = tested on: NCI-H1650
Outline: as §1

[17] = tested on: NCI-H1651
Outline: as §1

[18] = tested on: LU99A
Outline: as §1

[19] = tested on: NCI-H1355
Outline: as §1

[20] = tested on: HCC-44
Outline: as §1

[21] = tested on: NCI-H2342
Outline: as §1

[22] = tested on: NCI-H358
Outline: as §1

[23] = tested on: LOU-NH91
Outline: as §1

Work on `Oc1nc(-c2ccc(C(F)(F)F)cc2)nc2c1CSCC2` [XAV939] + COc1cccc2cc(-c3nc([C@H]4CC[C@H](C(=O)O)CC4)n4ncnc(N)c34)[nH]c12 [OSI-027] (partner 0.5 µM) yielded a relative viability ([1]; first compound 0.08 µM) of 0.962, a relative viability ([1]; first compound 0.253 µM) of 0.666 and a relative viability ([1]; first compound 0.8 µM) of 1.03. The relative viability ([1]; first compound 2.53 µM) was 0.767, the relative viability ([2]; first compound 0.08 µM) was 0.656 and the relative viability ([2]; first compound 0.253 µM) was 0.612. It also gave a relative viability ([2]; first compound 0.8 µM) of 0.556, a relative viability ([2]; first compound 2.53 µM) of 0.634 and a relative viability ([3]; first compound 0.08 µM) of 0.719. For the same molecule, the relative viability ([3]; first compound 0.253 µM) was 0.686, the relative viability ([3]; first compound 0.8 µM) was 0.593 and the relative viability ([3]; first compound 2.53 µM) was 0.532. It also gave a relative viability ([4]; first compound 0.08 µM) of 0.657, a relative viability ([4]; first compound 0.253 µM) of 0.794 and a relative viability ([4]; first compound 0.8 µM) of 0.697. It also gave a relative viability ([4]; first compound 2.53 µM) of 0.568, a relative viability ([5]; first compound 0.08 µM) of 0.28 and a relative viability ([5]; first compound 0.253 µM) of 0.303. For the same molecule, the relative viability ([5]; first compound 0.8 µM) was 0.314, the relative viability ([5]; first compound 2.53 µM) was 0.309 and the relative viability ([6]; first compound 0.08 µM) was 0.844. The relative viability ([6]; first compound 0.253 µM) was 0.769, the relative viability ([6]; first compound 0.8 µM) was 0.708 and the relative viability ([6]; first compound 2.53 µM) was 0.614. For the same molecule, the relative viability ([7]; first compound 0.08 µM) was 0.368, the relative viability ([7]; first compound 0.253 µM) was 0.288 and the relative viability ([7]; first compound 0.8 µM) was 0.321. For the same molecule, the relative viability ([7]; first compound 2.53 µM) was 0.251, the relative viability ([8]; first compound 0.08 µM) was 0.632 and the relative viability ([8]; first compound 0.253 µM) was 0.551. For the same molecule, the relative viability ([8]; first compound 0.8 µM) was 0.575, the relative viability ([8]; first compound 2.53 µM) was 0.51 and the relative viability ([9]; first compound 0.08 µM) was 1.03. The relative viability ([9]; first compound 0.253 µM) was 0.877, the relative viability ([9]; first compound 0.8 µM) was 0.89 and the relative viability ([9]; first compound 2.53 µM) was 0.783. It also gave a relative viability ([10]; first compound 0.08 µM) of 0.375, a relative viability ([10]; first compound 0.253 µM) of 0.371 and a relative viability ([10]; first compound 0.8 µM) of 0.365. The relative viability ([10]; first compound 2.53 µM) was 0.301, the relative viability ([11]; first compound 0.08 µM) was 0.904 and the relative viability ([11]; first compound 0.253 µM) was 0.555. The relative viability ([11]; first compound 0.8 µM) was 0.745, the relative viability ([11]; first compound 2.53 µM) was 0.631 and the relative viability ([12]; first compound 0.08 µM) was 0.731. It also gave a relative viability ([12]; first compound 0.253 µM) of 0.683, a relative viability ([12]; first compound 0.8 µM) of 0.739 and a relative viability ([12]; first compound 2.53 µM) of 0.585. The relative viability ([13]; first compound 0.08 µM) was 0.638, the relative viability ([13]; first compound 0.253 µM) was 0.686 and the relative viability ([13]; first compound 0.8 µM) was 0.958. For the same molecule, the relative viability ([13]; first compound 2.53 µM) was 0.625, the relative viability ([14]; first compound 0.08 µM) was 0.635 and the relative viability ([14]; first compound 0.253 µM) was 0.363. The relative viability ([14]; first compound 0.8 µM) was 0.441, the relative viability ([14]; first compound 2.53 µM) was 0.335 and the relative viability ([15]; first compound 0.08 µM) was 0.829. It also gave a relative viability ([15]; first compound 0.253 µM) of 0.639, a relative viability ([15]; first compound 0.8 µM) of 0.681 and a relative viability ([15]; first compound 2.53 µM) of 0.526. It also gave a relative viability ([16]; first compound 0.08 µM) of 0.817, a relative viability ([16]; first compound 0.253 µM) of 0.6 and a relative viability ([16]; first compound 0.8 µM) of 0.742. It also gave a relative viability ([16]; first compound 2.53 µM) of 0.443, a relative viability ([17]; first compound 0.08 µM) of 0.925 and a relative viability ([17]; first compound 0.253 µM) of 0.711. The relative viability ([17]; first compound 0.8 µM) was 0.838, the relative viability ([17]; first compound 2.53 µM) was 0.69 and the relative viability ([18]; first compound 0.08 µM) was 0.303. For the same molecule, the relative viability ([18]; first compound 0.253 µM) was 0.348, the relative viability ([18]; first compound 0.8 µM) was 0.329 and the relative viability ([18]; first compound 2.53 µM) was 0.268. It also gave a relative viability ([19]; first compound 0.08 µM) of 0.396, a relative viability ([19]; first compound 0.253 µM) of 0.353 and a relative viability ([19]; first compound 0.8 µM) of 0.368. It also gave a relative viability ([19]; first compound 2.53 µM) of 0.274, a relative viability ([20]; first compound 0.08 µM) of 0.611 and a relative viability ([20]; first compound 0.253 µM) of 0.533. The relative viability ([20]; first compound 0.8 µM) was 0.476, the relative viability ([20]; first compound 2.53 µM) was 0.726 and the relative viability ([21]; first compound 0.08 µM) was 0.596. The relative viability ([21]; first compound 0.253 µM) was 0.481, the relative viability ([21]; first compound 0.8 µM) was 0.531 and the relative viability ([21]; first compound 2.53 µM) was 0.464. It also gave a relative viability ([22]; first compound 0.08 µM) of 0.793, a relative viability ([22]; first compound 0.253 µM) of 0.624 and a relative viability ([22]; first compound 0.8 µM) of 0.785. It also gave a relative viability ([22]; first compound 2.53 µM) of 0.605, a relative viability ([23]; first compound 0.08 µM) of 0.701 and a relative viability ([23]; first compound 0.253 µM) of 0.662. The relative viability ([23]; first compound 0.8 µM) was 0.69 and the relative viability ([23]; first compound 2.53 µM) was 0.675.
